Measured values reported in US12116343B2, “Inhibitors of APOL1 and methods of using same” (Vertex Pharmaceuticals Incorporated, priority 2020, dated 2024).
Where two headings read alike, the source gives them in different places.

Target: T1, G1 APOL1 (Homo sapiens, UniProt O14791, I384M/S342G)
T1 construct: expressed in transfected cells
T1 sequence (O14791 28-398 S342G/I384M): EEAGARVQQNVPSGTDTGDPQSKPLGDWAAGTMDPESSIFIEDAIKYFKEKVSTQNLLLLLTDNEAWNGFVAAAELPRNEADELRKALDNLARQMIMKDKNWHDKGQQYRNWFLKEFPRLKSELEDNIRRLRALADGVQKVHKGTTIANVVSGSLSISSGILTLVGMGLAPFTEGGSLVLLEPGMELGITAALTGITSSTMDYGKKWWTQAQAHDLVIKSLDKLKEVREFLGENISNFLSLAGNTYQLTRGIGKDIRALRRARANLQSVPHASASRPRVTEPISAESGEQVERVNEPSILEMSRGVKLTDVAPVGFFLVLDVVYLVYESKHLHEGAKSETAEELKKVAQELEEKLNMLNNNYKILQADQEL
Assay: Acute APOL1 Thallium Assay with inducible stable clones of HEK 293 cells
Format: cell-based
Conditions: read-out: Thallium Assay (IC50)
Method in brief: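 Readout: Tl+-triggered fluorescence, FLIPR, reflecting potassium flux through APOL1 pores after cells take up an AM-ester thallium indicator. Cells: HEK T-Rex stable clone G1 DC3.25, APOL1 G1 induced by tetracycline, seeded 26000 per well.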

[1] = HEK 293 T-Rex cells expressing G1 APOL1

| IC50 (Table 24, Compounds 287 to 465) [µM] | IC50 [1] [µM] | Compound |
| --- | --- | --- |
| > 1 |  | NC(=O)CNC1CC(c2c(-c3ccc(F)cc3)[nH]c3c(F)cc(F)cc23)C1 (stereo not drawn) [Compound 288, 2-[[3-[5,7-difluoro-2-(4-fluorophenyl)-1H-indol-3-yl]cyclobutyl]amino]acetamide] |
|  | > 1 | O=C(NCCn1cccc1)[C@H]1C[C@@H](c2c(-c3ccc(F)cc3)[nH]c3c(F)cc(F)cc32)C1 [Compound 262] |
| > 1 |  | COCCNC(=O)CC1CC(c2c(-c3ccc(F)cc3)[nH]c3c(F)cc(F)cc23)C1 (stereo not drawn) [Compound 460] |
| < 0.25 |  | O=C(CNC[C@H]1C[C@H](c2c(-c3ccc(F)cc3)[nH]c3c(F)cc(F)cc32)C1)NCO [Compound 448] |
|  | 0.25 to 1 | O=C(NC(CO)(CO)CO)[C@H]1C[C@@H](c2c(-c3ccc(F)cc3)[nH]c3c(F)cc(F)cc32)C1 [Compound 273] |
| > 1 |  | C[C@H](O)[C@H](CO)NC(=O)O[C@H]1C[C@H](c2c(-c3ccc(F)cc3)[nH]c3c(F)cc(F)cc32)C1 [Compound 366] |
|  | 0.25 to 1 | C[C@H](CO)N(C)C(=O)[C@H]1C[C@H](c2c(-c3ccc(F)cc3)[nH]c3c(F)cc(F)cc32)C1 [Compound 190] |
|  | > 1 | Cn1cnc(CNC(=O)[C@H]2C[C@@H](c3c(-c4ccc(F)cc4)[nH]c4c(F)cc(F)cc43)C2)c1 [Compound 261] |
| > 1 |  | C[C@@H](O)[C@@H](CO)NC(=O)O[C@H]1C[C@H](c2c(-c3ccc(F)cc3)[nH]c3c(F)cc(F)cc32)C1 [Compound 372] |
| > 1 |  | C[C@H](CO)NC(=O)NC[C@H]1C[C@H](c2c(-c3ccc(F)cc3)[nH]c3c(F)cc(F)cc32)C1 [Compound 409] |
|  | > 1 | NC(=O)CNC(=O)[C@H]1C[C@@H](c2c(-c3ccc(F)cc3)[nH]c3c(F)cc(F)cc32)C1 [Compound 250] |
| > 1 |  | O=C(NCCO)NC[C@H]1C[C@H](c2c(-c3ccc(F)cc3)[nH]c3c(F)cc(F)cc32)C1 [Compound 393] |
| 0.25 to 1 |  | CON(C)C(=O)CNC[C@H]1C[C@H](c2c(-c3ccc(F)cc3)[nH]c3c(F)cc(F)cc32)C1 [Compound 450] |
| > 1 |  | CN(CC1CC(c2c(-c3ccc(F)cc3)[nH]c3c(F)cc(F)cc23)C1)C(=O)NCCO (stereo not drawn) [Compound 431] |
| > 1 |  | CCNC(=O)NC[C@H]1C[C@H](c2c(-c3ccc(F)cc3)[nH]c3c(F)cc(F)cc32)C1 [Compound 410] |
|  | > 1 | C[C@@H](O)CNC(=O)[C@H]1C[C@@H](c2c(-c3ccc(F)cc3)[nH]c3c(F)cc(F)cc32)C1 [Compound 258] |
|  | < 0.25 | O=C1NC[C@@H](O)[C@@H]1NC(=O)[C@H]1C[C@H](c2c(-c3ccc(F)cc3)[nH]c3c(F)cc(F)cc32)C1 [Compound 229] |
| 0.25 to 1 |  | O=C(NCC(F)F)O[C@H]1C[C@H](c2c(-c3ccc(F)cc3)[nH]c3c(F)cc(F)cc32)C1 [Compound 351] |
|  | > 1 | O=C(NC(CO)CO)[C@H]1C[C@@H](c2c(-c3ccc(F)cc3)[nH]c3c(F)cc(F)cc32)C1 [Compound 241] |
| > 1 |  | CC(O)(CO)CNC(=O)O[C@H]1C[C@H](c2c(-c3ccc(F)cc3)[nH]c3c(F)cc(F)cc32)C1 (mixture of isomers) [Compound 378] |
| > 1 |  | C[C@H](O)CNC(=O)O[C@H]1C[C@H](c2c(-c3ccc(F)cc3)[nH]c3c(F)cc(F)cc32)C1 [Compound 365] |
|  | > 1 | O=C([C@H]1C[C@@H](c2c(-c3ccc(F)cc3)[nH]c3c(F)cc(F)cc32)C1)N1C[C@@H](O)[C@H](O)C1 [Compound 274] |
| 0.25 to 1 |  | O=C(CC1CC(c2c(-c3ccc(F)cc3)[nH]c3c(F)cc(F)cc23)C1)NC1(CO)CC1 (stereo not drawn) [Compound 453] |
| > 1 |  | CC(C)C[C@H](CO)NC(=O)C1CC(Cc2c(-c3ccc(F)cc3)[nH]c3c(F)cc(F)cc23)C1 (stereo partly drawn) [Compound 302] |
|  | > 1 | O=C1NC[C@@H](O)[C@@H]1NC(=O)[C@H]1C[C@@H](c2c(-c3ccc(F)cc3)[nH]c3c(F)cc(F)cc32)C1 [Compound 277] |
| > 1 |  | NC(=O)CN[C@H]1C[C@H](c2c(-c3ccc(F)cc3)[nH]c3c(F)cc(F)cc32)C1 [Compound 294] |

Further lines, the molecule ahead of its results:

| Compound | IC50 (Table 24, Compounds 287 to 465) [µM] | IC50 [1] [µM] |
| --- | --- | --- |
| O=C(NCC1CC1)O[C@H]1C[C@H](c2c(-c3ccc(F)cc3)[nH]c3c(F)cc(F)cc32)C1 [Compound 370] | > 1 |  |
| O=C(NCC1(CO)COC1)NC[C@H]1C[C@H](c2c(-c3ccc(F)cc3)[nH]c3c(F)cc(F)cc32)C1 [Compound 396] | > 1 |  |
| O=C(NCC1CCOCC1)C1CC(Cc2c(-c3ccc(F)cc3)[nH]c3c(F)cc(F)cc23)C1 (stereo not drawn) [Compound 326] | > 1 |  |
| O=C(NCC1(O)CC1)NC[C@H]1C[C@H](c2c(-c3ccc(F)cc3)[nH]c3c(F)cc(F)cc32)C1 [Compound 399] | > 1 |  |
| O=C(NCc1cnco1)O[C@H]1C[C@H](c2c(-c3ccc(F)cc3)[nH]c3c(F)cc(F)cc32)C1 [Compound 353] | 0.25 to 1 |  |
| CCNC(=O)N1CC(c2c(-c3ccc(F)cc3)[nH]c3c(F)cc(F)cc23)C1 [Compound 464, 3-[5,7-difluoro-2-(4-fluorophenyl)-1H-indol-3-yl]-N-ethyl-azetidine-1-carboxamide] | 0.25 to 1 |  |
| CC(C)(NCC1CC(c2c(-c3ccc(F)cc3)[nH]c3c(F)cc(F)cc23)C1)C(N)=O (stereo not drawn) [Compound 440] | > 1 |  |
| O=C(NC[C@H]1C[C@H](c2c(-c3ccc(F)cc3)[nH]c3c(F)cc(F)cc32)C1)N[C@H]1CC[C@@H]1O [Compound 402] | > 1 |  |
| CN(CC1CC(c2c(-c3ccc(F)cc3)[nH]c3c(F)cc(F)cc23)C1)C(=O)N1CCC1 (stereo not drawn) [Compound 432] | > 1 |  |
| O=C(N[C@H]1CC[C@H](O)C1)[C@H]1C[C@H](c2c(-c3ccc(F)cc3)[nH]c3c(F)cc(F)cc32)C1 [Compound 187] |  | > 1 |
| CC1(NC(=O)C2CC(Cc3c(-c4ccc(F)cc4)[nH]c4c(F)cc(F)cc34)C2)CCOC1 (mixture of isomers) [Compound 334] | > 1 |  |
| C[C@@H](NCC1CC(c2c(-c3ccc(F)cc3)[nH]c3c(F)cc(F)cc23)C1)C(=O)N(C)C (stereo partly drawn) [Compound 438] | > 1 |  |
| O=C(Nc1c[nH][nH]c1=O)C1CC(Cc2c(-c3ccc(F)cc3)[nH]c3c(F)cc(F)cc23)C1 (stereo not drawn) [Compound 310] | > 1 |  |
| CC1(NC(=O)NC[C@H]2C[C@H](c3c(-c4ccc(F)cc4)[nH]c4c(F)cc(F)cc43)C2)CCNC1=O (mixture of isomers) [Compound 426] | > 1 |  |
| O=C(NCC1CC(F)(F)C1)C1CC(Cc2c(-c3ccc(F)cc3)[nH]c3c(F)cc(F)cc23)C1 (stereo not drawn) [Compound 328] | > 1 |  |
| O=C(CC1CC(c2c(-c3ccc(F)cc3)[nH]c3c(F)cc(F)cc23)C1)N[C@H]1CCNC1=O (stereo partly drawn) [Compound 456] | > 1 |  |
| O=C(NCC1CCNC1=O)NC[C@H]1C[C@H](c2c(-c3ccc(F)cc3)[nH]c3c(F)cc(F)cc32)C1 (stereo partly drawn) [Compound 417] | > 1 |  |
| C[C@]1(NC(=O)NC[C@H]2C[C@H](c3c(-c4ccc(F)cc4)[nH]c4c(F)cc(F)cc43)C2)C[C@@H](O)C1 [Compound 408] | > 1 |  |
| O=C(NCC(F)F)N1CC(c2c(-c3ccc(F)cc3)[nH]c3c(F)cc(F)cc23)C1 [Compound 465, 3-(5,7-difluoro-2-(4-fluorophenyl)-1H-indol-3-yl)-N-(2,2-difluoroethyl)azetidine-1-carboxamide] | 0.25 to 1 |  |
| O=C(NCc1cnco1)C1CC(Cc2c(-c3ccc(F)cc3)[nH]c3c(F)cc(F)cc23)C1 (stereo not drawn) [Compound 337] | > 1 |  |
| C[C@H](O)CNC(=O)C1CC(Cc2c(-c3ccc(F)cc3)[nH]c3c(F)cc(F)cc23)C1 (stereo partly drawn) [Compound 300] | > 1 |  |
| CC1(C)CC(C)(NC(=O)NC[C@H]2C[C@H](c3c(-c4ccc(F)cc4)[nH]c4c(F)cc(F)cc43)C2)C(=O)O1 (mixture of isomers) [Compound 392] | > 1 |  |
| O=C(NCc1cnn(CC(F)(F)F)c1)C1CC(Cc2c(-c3ccc(F)cc3)[nH]c3c(F)cc(F)cc23)C1 (stereo not drawn) [Compound 331] | > 1 |  |
| Cn1cc(CNC(=O)O[C@H]2C[C@H](c3c(-c4ccc(F)cc4)[nH]c4c(F)cc(F)cc43)C2)nn1 [Compound 387] | > 1 |  |
| O=C(NC[C@H]1C[C@H](c2c(-c3ccc(F)cc3)[nH]c3c(F)cc(F)cc32)C1)NC1CC(O)C1 (stereo partly drawn) [Compound 420] | > 1 |  |
| CC1(CNC(=O)C2CC(Cc3c(-c4ccc(F)cc4)[nH]c4c(F)cc(F)cc34)C2)CCOC1 (mixture of isomers) [Compound 332] | > 1 |  |
| CN(C(=O)NC[C@H]1C[C@H](c2c(-c3ccc(F)cc3)[nH]c3c(F)cc(F)cc32)C1)C1COCC1O (stereo partly drawn) [Compound 415] | > 1 |  |
| O=C(NCc1ccoc1)C1CC(Cc2c(-c3ccc(F)cc3)[nH]c3c(F)cc(F)cc23)C1 (stereo not drawn) [Compound 317] | > 1 |  |
